Key:
Format in all cases: in vivo
Solanum nigrum (SOLNI) = assay: B1 Post-emergence efficacy Test 1; conditions: post-emergence application, 1000 g/ha, evaluated after 13 days
Procedure, shortened: (§1)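 Plants sprayed 8 days after sowing with compound at 1000 g/ha in acetone/water (50:50) with 0.5% Tween 20; glasshouse at 24/16 °C day/night, 14 h light, 65% humidity. Damage scored 13 days later on a five-point scale (5=80-100% to 1=0-19%).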

Lolium perenne (LOLPE) = assay: B1 Post-emergence efficacy Test 1; conditions: post-emergence application, 1000 g/ha, evaluated after 13 days
Procedure, shortened: as §1

[1] = system: Echinochloa crus-galli (ECHCG); assay: B1 Post-emergence efficacy Test 1; conditions: post-emergence application, 1000 g/ha, evaluated after 13 days
Procedure, shortened: as §1

[2] = system: Amaranthus retoflexus (AMARE); assay: B1 Post-emergence efficacy Test 1; conditions: post-emergence application, 1000 g/ha, evaluated after 13 days
Procedure, shortened: as §1

Setaria faberi (SETFA) = assay: B1 Post-emergence efficacy Test 1; conditions: post-emergence application, 1000 g/ha, evaluated after 13 days
Procedure, shortened: as §1

[3] = system: Ipomoea hederacea (IPOHE); assay: B1 Post-emergence efficacy Test 1; conditions: post-emergence application, 1000 g/ha, evaluated after 13 days
Procedure, shortened: as §1

[4] = system: cool season plant species; assay: B2 Post-emergence efficacy Test 2, cool season plant species; conditions: 15 days after application, 0=no damage, 100=total kill
Procedure, shortened: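 Plants at 12 days post-sowing were sprayed with active ingredient formulated in IF50 plus 0.2% v/v Genapol XO80, then grown in a glasshouse (24/18 °C or 20/16 °C day/night, 16 h light, 65% humidity). Damage scored 15 days after application on 0–100 scale (100 = total kill).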

## Cc1nn(C)c(=O)c(-c2c(F)ccc(Cl)c2CCc2ccc(F)cc2)c1OC(=O)C(C)C [Compound 1.125]
Solanum nigrum (SOLNI)
  percentage damage caused to the plant, five point scale, SOLNI: 5 (5=80-100%)
Lolium perenne (LOLPE)
  percentage damage caused to the plant, five point scale, LOLPE: 5 (5=80-100%)
[1]
  percentage damage caused to the plant, five point scale, ECHCG: 5 (5=80-100%)
[2]
  percentage damage caused to the plant, five point scale, AMARE: 5 (5=80-100%)
Setaria faberi (SETFA)
  percentage damage caused to the plant, five point scale, SETFA: 5 (5=80-100%)
[3]
  percentage damage caused to the plant, five point scale, IPOHE: 5 (5=80-100%)
[4]; 15 g/Ha
  Herbicidal activity (0-100 scale) ALOMY: 10
  Herbicidal activity (0-100 scale) AVEFA: 30
  Herbicidal activity (0-100 scale) BEAVA: 70
  Herbicidal activity (0-100 scale) BROTE: 0
  Herbicidal activity (0-100 scale) BRSNN: 80
  Herbicidal activity (0-100 scale) CHEAL: 90
  Herbicidal activity (0-100 scale) HORVW: 0
  Herbicidal activity (0-100 scale) KCHSC: 0
  Herbicidal activity (0-100 scale) LOLPE: 40
  Herbicidal activity (0-100 scale) POAAN: 0
  Herbicidal activity (0-100 scale) POLCO: 90
  Herbicidal activity (0-100 scale) SINAR: 60
  Herbicidal activity (0-100 scale) STEME: 90
  Herbicidal activity (0-100 scale) TRZAW: 0
  Herbicidal activity (0-100 scale) VERPE: 70
[4]; 30 g/Ha
  Herbicidal activity (0-100 scale) ALOMY: 10
  Herbicidal activity (0-100 scale) AVEFA: 40
  Herbicidal activity (0-100 scale) BEAVA: 60
  Herbicidal activity (0-100 scale) BROTE: 0
  Herbicidal activity (0-100 scale) BRSNN: 80
  Herbicidal activity (0-100 scale) CHEAL: 90
  Herbicidal activity (0-100 scale) GALAP: 20
  Herbicidal activity (0-100 scale) HORVW: 0
  Herbicidal activity (0-100 scale) KCHSC: 20
  Herbicidal activity (0-100 scale) LOLPE: 50
  Herbicidal activity (0-100 scale) POAAN: 10
  Herbicidal activity (0-100 scale) POLCO: 90
  Herbicidal activity (0-100 scale) SINAR: 60
  Herbicidal activity (0-100 scale) STEME: 90
  Herbicidal activity (0-100 scale) TRZAW: 10
  Herbicidal activity (0-100 scale) VERPE: 70
[4]; 60 g/Ha
  Herbicidal activity (0-100 scale) ALOMY: 30
  Herbicidal activity (0-100 scale) AVEFA: 60
  Herbicidal activity (0-100 scale) BEAVA: 60
  Herbicidal activity (0-100 scale) BROTE: 0
  Herbicidal activity (0-100 scale) BRSNN: 80
  Herbicidal activity (0-100 scale) CHEAL: 90
  Herbicidal activity (0-100 scale) GALAP: 20
  Herbicidal activity (0-100 scale) HORVW: 10
  Herbicidal activity (0-100 scale) KCHSC: 30
  Herbicidal activity (0-100 scale) LOLPE: 60
  Herbicidal activity (0-100 scale) POAAN: 20
  Herbicidal activity (0-100 scale) POLCO: 90
  Herbicidal activity (0-100 scale) SINAR: 80
  Herbicidal activity (0-100 scale) STEME: 90
  Herbicidal activity (0-100 scale) TRZAW: 10
  Herbicidal activity (0-100 scale) VERPE: 70
[4]; 125 g/Ha
  Herbicidal activity (0-100 scale) ALOMY: 30
  Herbicidal activity (0-100 scale) AVEFA: 70
  Herbicidal activity (0-100 scale) BEAVA: 70
  Herbicidal activity (0-100 scale) BROTE: 0
  Herbicidal activity (0-100 scale) BRSNN: 90
  Herbicidal activity (0-100 scale) CHEAL: 90
  Herbicidal activity (0-100 scale) GALAP: 30
  Herbicidal activity (0-100 scale) HORVW: 10
  Herbicidal activity (0-100 scale) KCHSC: 50
  Herbicidal activity (0-100 scale) LOLPE: 70
  Herbicidal activity (0-100 scale) POAAN: 60
  Herbicidal activity (0-100 scale) POLCO: 90
  Herbicidal activity (0-100 scale) SINAR: 90
  Herbicidal activity (0-100 scale) STEME: 90
  Herbicidal activity (0-100 scale) TRZAW: 20
  Herbicidal activity (0-100 scale) VERPE: 80
[4]; 250 g/Ha
  Herbicidal activity (0-100 scale) ALOMY: 60
  Herbicidal activity (0-100 scale) AVEFA: 70
  Herbicidal activity (0-100 scale) BEAVA: 70
  Herbicidal activity (0-100 scale) BROTE: 10
  Herbicidal activity (0-100 scale) BRSNN: 90
  Herbicidal activity (0-100 scale) CHEAL: 90
  Herbicidal activity (0-100 scale) GALAP: 40
  Herbicidal activity (0-100 scale) HORVW: 10
  Herbicidal activity (0-100 scale) KCHSC: 60
  Herbicidal activity (0-100 scale) LOLPE: 80
  Herbicidal activity (0-100 scale) POAAN: 70
  Herbicidal activity (0-100 scale) POLCO: 90
  Herbicidal activity (0-100 scale) SINAR: 90
  Herbicidal activity (0-100 scale) STEME: 90
  Herbicidal activity (0-100 scale) TRZAW: 30
  Herbicidal activity (0-100 scale) VERPE: 80
[4]; 500 g/Ha
  Herbicidal activity (0-100 scale) ALOMY: 40
  Herbicidal activity (0-100 scale) AVEFA: 80
  Herbicidal activity (0-100 scale) BEAVA: 70
  Herbicidal activity (0-100 scale) BROTE: 10
  Herbicidal activity (0-100 scale) BRSNN: 90
  Herbicidal activity (0-100 scale) CHEAL: 90
  Herbicidal activity (0-100 scale) GALAP: 70
  Herbicidal activity (0-100 scale) HORVW: 10
  Herbicidal activity (0-100 scale) KCHSC: 70
  Herbicidal activity (0-100 scale) LOLPE: 90
  Herbicidal activity (0-100 scale) POAAN: 60
  Herbicidal activity (0-100 scale) POLCO: 90
  Herbicidal activity (0-100 scale) SINAR: 90
  Herbicidal activity (0-100 scale) STEME: 90
  Herbicidal activity (0-100 scale) TRZAW: 50
  Herbicidal activity (0-100 scale) VERPE: 90
